# Experiments:
# [1] = system: traumatic brain injury (TBI) rats; assay: Water maze test (acquisition and probe trial) 12 weeks after fluid-percussion brain injury; assay type: in vivo, Sprague Dawley rats
# Text: (§1) Sprague Dawley rats were subjected to moderate parasagittal fluid-percussion brain injury using methods described in Atkins et al, J Neurosci Res 90, 1861-71 (2012). Adult male Sprague Dawley rats (280-300 g; Charles Rivers Laboratories) were anesthetized with 3% isoflurane, 70% N2O, and 30% O2 and received a 4.8-mm craniotomy (3.8 mm posterior to bregma, 2.5 mm lateral to the midline) over the right parietal cortex. Twenty-four hours after the craniotomy, the animals were re-anesthetized (3% isoflurane, 70% N2O, and 30% O2); immobilized with pancuronium bromide (1.0 mg/kg); and mechanically ventilated with 1% isoflurane, 70% N2O, and 30% O2. When physiological measurements had stabilized, the animals received a fluid-percussion pulse (1.8-2.2 atmospheres, 14-16 msec) or sham injury with the fluid-percussion brain injury device. Blood gases, blood pH, and mean arterial blood pressure were monitored for 30 min prior to the fluid percussion brain injury or sham surgery and for up to 1 hr post-injury to maintain normal levels. Injured and sham injured rats were coded such that the investigator assessing the behavior of the animals would not know their injury status.
# 2-(4-(2-(5-chlorothiophen-2-yl)-5-ethyl-6-methylpyrimidin-4-yl)amino)phenyl)acetic acid (Compound 33) was dissolved in 100% dimethylsulfoxide (DMSO) at 1 mg/ml and then diluted 20 fold into 0.9% sodium chloride (saline) with 2 molar equivalents of sodium hydroxide (0.258 mM) to yield a final concentration of Compound 33 at 0.05 mg/ml in 5% DMSO saline. Rats treated with vehicle received 5% DMSO in saline. Four treatment groups were studied; TBI rats treated with vehicle, TBI rats treated with Compound 33, sham rats treated with vehicle, and sham rats treated with Compound 33. Compound 33 and vehicle were delivered by intraperitoneal injection. Compound 33 was administered at a dose of 0.3 mg/kg. […] At 12 weeks after surgery, the rats were administered either vehicle or Compound 33 only 30 minutes prior to training on the water maze test.
# Twelve weeks after surgery, rats were tested for cognitive ability using the water maze test. Animals received vehicle or Compound 33 (0.3 mg/kg, i.p.) 30 min prior to water maze training. The circular pool (122 cm diameter, 60 cm deep) was filled with opaque water at 24° C. and surrounded by distinct, invariant extramaze cues. An escape platform, 9.3 cm in diameter, was submerged 1.5 cm below the water surface. Animals received four 60 s acquisition trials per day for 4 days with inter-trial intervals of 4 min. […] Path length to reach the platform, escape latency, and swim speed were analyzed with EthoVision software (Noldus Information Technology). […]
# [2] = system: traumatic brain injury (TBI) rats; assay: Working memory version of the water maze task, week 14 post-surgery; assay type: in vivo, Sprague Dawley rats; settings: 0.3 mg/kg 30 min prior to testing
# Text: as §1, with “status. […]” for “status.”
# To assess working memory in TBI animals, a working memory version of the water maze task was used on week 14 post-surgery. […] Escape latency differences between the first location trial and subsequent match trial were measured.
# [3] = system: subjects suffering a brain injury; settings: administered 1 hour after the injury; cited from earlier work
# brain injury = settings: within 30 minutes of a brain injury; cited from earlier work
# normal uninjured brains = settings: cited from earlier work
# [4] = 0.3 mg/kg i.p. 30 min prior to training, 4 training days, 12 weeks after surgery
structure (smiles),measurement,setting,value
CCc1c(C)nc(-c2ccc(Cl)s2)nc1Nc1ccc(CC(=O)O)cc1 [Compound 33],escape latency to reach the hidden platform during acquisition,[1]; [4],progressive decrease
same,path length to reach the hidden platform during acquisition,[1]; [4],progressive decrease
same,indices of learning (escape latency and path length) on the 4th day of acquisition,"[1]; 0.3 mg/kg i.p., 4th day of acquisition, versus sham animals",comparable to sham animals treated with vehicle or Compound 33
same,"time in the target quadrant, probe trial (retention)","[1]; 24 h after last acquisition trial, platform removed, no drug on probe day",spent less time in the target quadrant as compared to Compound 33-treated TBI animals
same,working memory (escape latency difference between location and match trial),[2],this deficit was rescued by Compound 33 treatment
CC(=O)CCCCn1c(=O)c2c(ncn2C)n(C)c1=O [pentoxyfilline],TNF-α,[3],reduced TNF-α
same,outcomes after brain injury,[3],improved outcomes
COc1ccc(C2CNC(=O)C2)cc1OC1CCCC1 (stereo not drawn) [rolipram],effect on brain injury,brain injury,exacerbates the brain injury
same,learning and memory,normal uninjured brains,improve learning and memory

# From patent US8865723B2, “Selective PDE4 B inhibition and improvement in cognition in subjects with brain injury” (Tetra Discovery Partners LLC, priority 2012, dated 2014)
